Reference: patent US20260374766A1, “METHODS FOR TREATING CANCER” (Antares Therapeutics, Inc., priority 2022, published 2026)

What was measured:
[1] = test system: H1299 p53 Y220C; assay: Cell Proliferation Assay (CellTiter-Glo, CTG), H1299 p53 Y220C (NClH1299-inducible p53 Y220C); assay type: cell-based; conditions: Homo sapiens, NCI-H1299, 120 h, CellTiter-Glo, H1299 p53 Y220C, 5 days
Summary of the method: (§1)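 Tet-One inducible p53 Y220C or R273H constructs were stably introduced into NCI-H1299 by lentiviral transduction; NUGC3 was used as is. Cells (250-500 per well) were exposed to compound for 5 days, then CellTiter-Glo was added for 10 min at room temperature and IC50 was calculated from luminescence.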

[2] = test system: NUGC3 p53 Y220C; assay: Cell Proliferation Assay (CellTiter-Glo, CTG), NUGC3 p53 Y220C; assay type: cell-based; conditions: Homo sapiens, NUGC-3, 120 h, CellTiter-Glo, NUGC3 p53 Y220C, 5 days
Summary of the method: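 NClH1299 lines stably transduced with Tet-inducible p53 Y220C or R273H, plus NUGC3, were treated with compound for 5 days at 250-500 cells/well. IC50 derived from CellTiter-Glo luminescent signal after 10 min room-temperature incubation.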

[3] = target: p53 Y220C (Homo sapiens, UniProt P04637, Y220C); assay: Luciferase Reporter Assay (Luc), p53 response element, NClH1299 cells with inducible p53 Y220C; assay type: cell-based; conditions: luciferase reporter, NClH1299 inducible p53 Y220C, 6 hour; for Emax: 10 uM tool compound as positive control; for AC50: read-out: Luc P53 Y220C AC50
Summary of the method: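 Luciferase activity is measured directly after One-Glo addition and a 5-minute room-temperature shake. Before that, cells plated at 5,000 per well receive doxycycline at 0.5 ug/mL for 24 hours, followed by compound for 6 hours.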

[4] = target: T1, p53 Y220C mutant protein (amino acid residues 94-293) (Homo sapiens, UniProt P04637, Y220C); assay: Surface Plasmon Resonance (SPR) assay, Kd_kinetic; assay type: binding; conditions: SPR, kinetic KD, p53 Y220C; read-out: SPR P53 Y220C KD kinetic
T1 construct: p53 Y220C mutant protein (amino acid residues 94-293)
Summary of the method: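 Kd values come from fitting sensorgrams to a 1:1 binding model. Sensorgrams were recorded on a Biacore 8K at 16 or 20 °C in pH 7.5 Tris buffer with 100 mM NaCl, 1 mM DTT, detergents and 1% DMSO.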

[5] = test system: H1299 p53 R273H; assay: Cell Proliferation Assay (CellTiter-Glo, CTG), H1299 p53 R273H (NClH1299-inducible p53 R273H); assay type: cell-based; conditions: Homo sapiens, NCI-H1299, 120 h, CellTiter-Glo, H1299 p53 R273H, 5 days
Summary of the method: as §1

[6] = target: T1, p53 Y220C mutant protein (amino acid residues 94-293); assay: Thermal Shift Assay (TSA), dTM; assay type: binding; conditions: thermal shift; for ΔTm at 100 µM: 100 uM compound, read-out: TSA P53 Y220C dTM (100 uM)
Summary of the method: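 First, the mutant DNA-binding domain (5 μM) was preincubated 3 hours at 20 °C with compound at 10 μM or 100 μM. Next, the sample was heated from 30 °C to 50 °C at 0.03 °C/second in the presence of Sypro Orange. Finally, TM was obtained from a two-state Boltzmann fit.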

Row | Structure (SMILES) | IC50 [1] [µM] | IC50 [2] [µM] | Emax [3] [%] | AC50 [3] [µM] | Kd [4] [µM] | IC50 [5] [µM] | ΔTm at 100 µM [6] [°C] | ΔTm at 10 µM ([6]; 10 uM compound, read-out: TSA P53 Y220C dTM (10 uM)) [°C]
1 | COc1cc(S(C)(=O)=O)ccc1NCC#Cc1nc2c(NC3CCS(=O)(=O)CC3)cccn2c1CC(F)(F)F [Example 4, 4-[(2-{3-[(4-methanesulfonyl-2-methoxyphenyl)amino]prop-1-yn-1-yl}-3-(2,2,2-trifluoroethyl)imidazo[1,2-a]pyridin-8-yl)amino]-1lambda6-thiane-1,1-dione] | > 3 | 1.5 to 3 | < 70 | > 3 | 0.01 to 0.1 | ≥ 10 | 5 to 10 | 
2 | COc1cc(S(C)(=O)=O)ccc1NCC#Cc1nc2c(NC3CCN(CCS(C)(=O)=O)CC3)cccn2c1CC(F)(F)F [Example 5, N-(2-{3-[(4-methanesulfonyl-2-methoxyphenyl)amino]prop-1-yn-1-yl}-3-(2,2,2-trifluoroethyl)imidazo[1,2-a]pyridin-8-yl)-1-(2-methanesulfonylethyl) piperidin-4-amine] | > 3 | 1.5 to 3 | 80 to 90 | > 3 | 0.01 to 0.1 | ≥ 10 | 5 to 10 | 5 to 10
3 | COc1cc(S(C)(=O)=O)ccc1NCC#Cc1nc2c(N[C@H]3CCN(C)C[C@H]3F)cccn2c1CC(F)(F)F [Example 6, (3R,4S)-3-fluoro-N-(2-{3-[(4-methanesulfonyl-2-methoxyphenyl)amino]prop-1-yn-1-yl}-3-(2,2,2-trifluoroethyl)imidazo[1,2-a]pyridin-8-yl)-1-methylpiperidin-4-amine] | 1.5 to 3 | 1.5 to 3 | 70 to 80 | 1.5 to 3 | 0.01 to 0.1 | ≥ 10 | ≥ 10 | 
4 | COc1cc(S(C)(=O)=O)ccc1NCC#Cc1nc2c(NC3CCN(C4CC4)CC3)cccn2c1CC(F)(F)F [Example 7, 1-cyclopropyl-N-(2-{3-[(4-methanesulfonyl-2-methoxyphenyl)amino]prop-1-yn-1-yl}-3-(2,2,2-trifluoroethyl)imidazo[1,2-a]pyridin-8-yl)piperidin-4-amine] | 1.5 to 3 | 1.5 to 3 | < 70 | > 3 | 0.01 to 0.1 | 5 to 8 | 5 to 10 | 
5 | COc1cc(S(C)(=O)=O)ccc1NCC#Cc1nc2c(N[C@@H]3CCNC[C@@H]3F)cccn2c1CC(F)(F)F [Example 8, (3S,4R)-3-fluoro-N-(2-{3-[(4-methanesulfonyl-2-methoxyphenyl)amino]prop-1-yn-1-yl}-3-(2,2,2-trifluoroethyl)imidazo[1,2-a]pyridin-8-yl)piperidin-4-amine] | 0.75 to 1.5 | 0.75 to 1.5 | 70 to 80 | 0.75 to 1.5 | < 0.01 | 5 to 8 | ≥ 10 | 
6 | COc1cc(S(C)(=O)=O)ccc1NCC#Cc1nc2c(NC3CCN(C(C)C)CC3)cccn2c1CC(F)(F)F [Example 9, 1-isopropyl-N-(2-{3-[(4-methanesulfonyl-2-methoxyphenyl)amino]prop-1-yn-1-yl}-3-(2,2,2-trifluoroethyl)imidazo[1,2-a]pyridin-8-yl)piperidin-4-amine] | 1.5 to 3 | 1.5 to 3 | 70 to 80 | 1.5 to 3 | 0.01 to 0.1 | 5 to 8 | ≥ 10 | 
7 | COc1cc(S(C)(=O)=O)ccc1NCC#Cc1nc2c(NC3CCN(CC(C)(C)O)CC3)cccn2c1CC(F)(F)F [Example 11, 1-{4-[(2-{3-[(4-methanesulfonyl-2-methoxyphenyl)amino]prop-1-yn-1-yl}-3-(2,2,2-trifluoroethyl)imidazo [1,2-a]pyridin-8-yl)amino]piperidin-1-yl}-2-methylpropan-2-ol] | 0.75 to 1.5 | 1.5 to 3 | 70 to 80 | 1.5 to 3 | 0.01 to 0.1 | 5 to 8 | ≥ 10 | 
8 | COC[C@@H](O)CN1CCC(Nc2cccn3c(CC(F)(F)F)c(C#CCNc4ccc(S(C)(=O)=O)cc4OC)nc23)CC1 [Example 12, (2S)-1-{4-[(2-{3-[(4-methanesulfonyl-2-methoxyphenyl)amino]prop-1-yn-1-yl}-3-(2,2,2-trifluoroethyl)imidazo[1,2-a]pyridin-8-yl)amino]piperidin-1-yl}-3-methoxypropan-2-ol] | 1.5 to 3 | 0.75 to 1.5 | 70 to 80 | 1.5 to 3 | 0.01 to 0.1 | ≥ 10 | ≥ 10 | 
9 | COC[C@H](O)CN1CCC(Nc2cccn3c(CC(F)(F)F)c(C#CCNc4ccc(S(C)(=O)=O)cc4OC)nc23)CC1 [Example 14, (2R)-1-{4-[(2-{3-[(4-methanesulfonyl-2-methoxyphenyl)amino]prop-1-yn-1-yl}-3-(2,2,2-trifluoroethyl)imidazo[1,2-a]pyridin-8-yl)amino]piperidin-1-yl}-3-methoxypropan-2-ol] | 0.75 to 1.5 | 0.75 to 1.5 | 70 to 80 | 1.5 to 3 | 0.01 to 0.1 | 5 to 8 | ≥ 10 | 
10 | CCc1c(C#CCNc2ccc(S(C)(=O)=O)cc2OC)nc2c(N[C@@H]3CCN(C)C[C@@H]3F)cccn12 [Example 15, (3S,4R)—N-(3-ethyl-2-{3-[(4-methanesulfonyl-2-methoxyphenyl)amino]prop-1-yn-1-yl}imidazo[1,2-a]pyridin-8-yl)-3-fluoro-1-methylpiperidin-4-amine] | 1.5 to 3 | 1.5 to 3 | < 70 | 1.5 to 3 | 0.01 to 0.1 | 8 to 10 | 5 to 10 | 
11 | CCc1c(C#CCNc2ccc(S(C)(=O)=O)cc2OC)nc2c(NC3CCN(C)CC3)cccn12 [Example 16, N-(3-ethyl-2-{3-[(4-methanesulfonyl-2-methoxyphenyl)amino]prop-1-yn-1-yl}imidazo[1,2-a]pyridin-8-yl)-1-methylpiperidin-4-amine] | > 3 | > 3 | < 70 | > 3 | 0.01 to 0.1 | 5 to 8 | 5 to 10 | 
12 | CCOc1c(C#CCNc2ccc(C(=O)NC)cc2OC)nc2c(N[C@@H]3CCN(C)C[C@@H]3F)cccn12 [Example 17, 4-{[3-(3-ethoxy-8-{[(3S,4R)-3-fluoro-1-methylpiperidin-4-yl]amino}imidazo[1,2-a]pyridin-2-yl)prop-2-yn-1-yl]amino}-3-methoxy-N-methylbenzamide] | > 3 | > 3 | < 70 | > 3 | 0.1 to 1 | ≥ 10 | 1 to 5 | 
13 | CC#Cc1nn2c(N[C@@H]3CCN(C)C[C@@H]3F)cccc2c1CC(F)(F)F [Example 20, (3S,4R)-3-fluoro-1-methyl-N-[2-(prop-1-yn-1-yl)-3-(2,2,2-trifluoroethyl)pyrazolo[1,5-a]pyridin-7-yl]piperidin-4-amine] | > 3 | > 3 | < 70 | > 3 | 0.01 to 0.1 | ≥ 10 | 5 to 10 | 
